In the first experiment the test system is Utrophin A promoter linked to a luciferase reporter gene. Briefly: Luciferase reporter assay (murine H2K cells). The experiment is classed as cell-based. The following applies: Mus musculus, H2K mdx, luciferase level relative to control; H2K/mdx/Utro A reporter cells; compound 10 μM final concentration; read-out: Activity. In short, it runs like this: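 Compound at 10 μM final was applied for 48 hrs to plated H2K mdx myoblasts (33° C, 10% CO2, interferon-containing medium) bearing a luciferase gene under the utrophin A promoter. Luminescence from lysed cells served as read-out.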
(Reporter assays use an easily measured gene product as a stand-in for the process of interest.)
In the case of `O=[N+]([O-])c1cnc2oc(-c3ccccc3)nc2c1` [Example 153, 6-nitro-2-phenyloxazolo[5,4-b]pyridine], the activity at 10 µM is < 200%.

As to `CN[C@@H](C)C(=O)Nc1ccc2oc(-c3ccc(Cl)cc3)nc2c1` [Example 377, (S)-N-(2-(4-chlorophenyl)benzo[d]oxazol-5-yl)-2-(methylamino)propanamide], the activity at 10 µM is 301 to 400%. On to `COc1ccc(-c2nc3cc(NC(=O)c4ccncc4)ccc3o2)cc1` [Example 134, N-(2-(4-methoxyphenyl)benzo[d]oxazol-5-yl)isonicotinamide], for which the activity at 10 µM was < 200%.

Regarding `Nc1ccc2oc(-c3ccccc3)nc2c1` [Example 14, 2-phenylbenzo[d]oxazol-5-amine], the activity at 10 µM fell in the range of 301 to 400%.

`CC(C)C(=O)Nc1ccc2oc(-c3ccc(Cl)cc3Cl)nc2c1` [Example 257, N-(2-(2,4-dichlorophenyl)benzo[d]oxazol-5-yl)isobutyramide]: the activity at 10 µM was < 200%. Still for that read-out and setting: the result for `CCS(=O)(=O)c1ccc2oc(C3CCCCC3)nc2c1` [Example 392, 2-cyclohexyl-5-(ethylsulfonyl)benzo[d]oxazole] reads < 200%.

As for `CC(=O)Nc1ccc(-c2nc3cc(C)c(C)cc3o2)c(O)c1` [Example 433, N-(4-(5,6-dimethylbenzo[d]oxazol-2-yl)-3-hydroxyphenyl)acetamide], the activity at 10 µM was in the range of 201 to 300%. Same read-out and setting: the result for `CC(C)S(=O)(=O)c1ccc2oc(-c3ccc(Cl)cc3)nc2c1` [Example 281, 2-(4-chlorophenyl)-5-(isopropylsulfonyl)benzo[d]oxazole] reads > 401%; that for `O=C(Nc1ccc2oc(-c3cccnc3)nc2c1)c1ccccc1` [Example 39, N-(2-(pyridin-3-yl)benzo[d]oxazol-5-yl)benzamide], < 200%; that for `CCN(CC)c1ccc(-c2nc3cc(NC(=O)c4cc(Cl)cc(Cl)c4)ccc3o2)cc1` [Example 70, 3,5-dichloro-N-(2-(4-(diethylamino)phenyl)benzo[d]oxazol-5-yl)benzamide], < 200%. On the same count and under the same terms, the result for `O=C(Nc1ccc2oc(-c3cccnc3)nc2c1)c1ccco1` [Example 57, N-(2-(pyridin-3-yl)benzo[d]oxazol-5-yl)furan-2-carboxamide] reads < 200%; that for `CCN(CC)c1ccc(-c2nc3cc(-c4ccccc4)ccc3o2)cc1` [Example 145, N,N-diethyl-4-(5-phenylbenzo[d]oxazol-2-yl)aniline], < 200%. On to `CCS(=O)(=O)c1ccc2oc(-c3ccc(-c4ccccc4)cc3)nc2c1` [Example 426, 2-(biphenyl-4-yl)-5-(ethylsulfonyl)benzo[d]oxazole], for which the activity at 10 µM is < 200%. Take `Nc1ccc2oc(-c3ccc(C4CCCCC4)cc3)nc2c1` [Example 421, 2-(4-cyclohexylphenyl)benzo[d]oxazol-5-amine]: the activity at 10 µM was > 401%. As to `CC(C)(C)c1ccc2oc(-c3ccc(Cl)cc3)nc2c1` [Example 321, 5-tert-butyl-2-(4-chlorophenyl)benzo[d]oxazole], the activity at 10 µM was > 401%.

As for `Cc1cc(NC(=O)c2ccc(F)cc2F)c(OC(=O)c2ccc(F)cc2F)cc1C` [Example 238, 2-(2,4-difluorobenzamido)-4,5-dimethylphenyl 2,4-difluorobenzoate], the activity at 10 µM is < 200%. Turning to `c1ccc(-c2nc3ccccc3o2)nc1` [Example 147, 2-(pyridin-2-yl)benzo[d]oxazole], the activity at 10 µM is < 200%. Still for that read-out and setting: the result for `Clc1ccc(-c2nc3cc(-c4ccc(N5CCOCC5)nc4)ccc3o2)cc1` [Example 316, 2-(4-chlorophenyl)-5-(6-morpholinopyridin-3-yl)benzo[d]oxazole] reads < 200%; that for `Cc1ccccc1-c1nc2cc(NC(=O)C(C)C)ccc2o1` [Example 226, N-(2-o-tolylbenzo[d]oxazol-5-yl)isobutyramide], > 401%; that for `Cc1ccc(-c2nc3cc(NC(=O)c4ccncc4)ccc3o2)cc1` [Example 114, N-(2-p-tolylbenzo[d]oxazol-5-yl)isonicotinamide], < 200%. On to `Cc1ccc(-c2nc3cc(Br)ccc3o2)cc1` [Example 198, 5-bromo-2-p-tolylbenzo[d]oxazole], for which the activity at 10 µM was 301 to 400%. The same measure, in the same setting: the result for `CC(C)C(=O)Nc1ccc2cc(-c3ccccc3)[nH]c2c1` [Example 375, N-(2-phenyl-1H-indol-6-yl)isobutyramide] reads < 200%; that for `O=C(Nc1ccc2oc(-c3ccccc3)nc2c1)c1ccccc1` [Example 59, N-(2-phenylbenzo[d]oxazol-5-yl)benzamide], 201 to 300%; that for `CCN(CC)c1ccc(-c2nc3cc(NC(=O)C(C)C)ccc3o2)cc1` [Example 78, N-(2-(4-(diethylamino)phenyl)benzo[d]oxazol-5-yl)isobutyramide], < 200%. Turning to `Cc1cccc(-c2nc3cc(N)ccc3o2)c1` [Example 196, 2-m-tolylbenzo[d]oxazol-5-amine], the activity at 10 µM is < 200%. With `CC(C)C(=O)Nc1ccc2oc(C3CCOCC3)nc2c1` [Example 349, N-(2-(tetrahydro-2H-pyran-4-yl)benzo[d]oxazol-5-yl)isobutyramide], the activity at 10 µM was < 200%. As for `c1ccc(-c2ccc3oc(-c4ccccc4)nc3c2)cc1` [Example 85, 2,5-diphenylbenzo[d]oxazole], the activity at 10 µM was 301 to 400%. The same measure, in the same setting: with `CCCc1nc2cc(N)ccc2o1` [Example 154, 2-propylbenzo[d]oxazol-5-amine] the figure was < 200%.

As to `O=C(Nc1ccc2oc(-c3ccccc3)nc2c1)c1cccnc1` [Example 6, N-(2-phenylbenzo[d]oxazol-5-yl)nicotinamide], the activity at 10 µM was < 200%.

Staying with this experiment, now noted: luciferase reporter assay in murine H2K cells; classified relative to control.
As to `Cc1cc2oc(C(=O)NCc3ccncc3)c(C)c2cc1C` [Example 656], the Activity result is “+++ (Between 301% and 400% relative to control)”. Take `COCc1nc2ccccc2[nH]1` [Example 499]: the Activity entry was “+ (Up to 200% relative to control)”. Same read-out and setting: with `Clc1cccc(-c2nc3ccccc3[nH]2)c1` [Example 514] the entry was “+ (Up to 200% relative to control)”; with `c1ccc2sc(-c3ccc4c(c3)OCO4)nc2c1` [Example 608], “++++ (Above 401% relative to control)”. As to `O=C(c1ccccc1)c1ccc2nc(-c3ccccc3)[nH]c2c1` [Example 581], the Activity entry is reported as “+ (Up to 200% relative to control)”. Still for that read-out and setting: with `O=S(=O)(c1ccc(-c2nc3ccccc3s2)cc1)N1CCCCC1` [Example 516] the entry was “++ (Between 201% and 300% relative to control)”. As for `Cl.Cl.Nc1ccc2[nH]c(-c3ccco3)nc2c1` [Example 510], the Activity result is given as “+ (Up to 200% relative to control)”. The same measure, in the same setting: with `Nc1ccc2oc(-c3ccc(Cl)c(Cl)c3)nc2c1` [Example 480] the entry was “++ (Between 201% and 300% relative to control)”; with `COc1ccc(-c2nc3ccccc3o2)cc1` [Example 583], “+++ (Between 301% and 400% relative to control)”. The same measure, in the same setting: with `O=C(Cc1ccccc1)Nc1ccc(-c2nc3ccccc3[nH]2)cc1` [Example 501] the entry was “+ (Up to 200% relative to control)”; with `Cc1cc2nc(-c3ccc(N)cc3)oc2cc1C` [Example 485], “++ (Between 201% and 300% relative to control)”.
